Numbering of substitutions follows the chain as printed. Where two headings read alike, the source gives them in different places.
Key:
[1] = pH 7.72, l = 0.5, KNO3; cited from earlier work
[2] = Concentration-dependent reaction rate of aquacobalamin with thiol ligand forming thiolatocobalamin (time-resolved UV-visible spectroscopy); format: physicochemical; conditions: pH 7.2, l = 1, sodium triflate
Protocol: The UV-visible spectra of newly synthesized cobalamin derivatives was determined in EPPS buffer (40 mM, pH 7.6, l=1.0 M with sodium triflate). The reaction of aquacobalamin with cysteamine and mercaptopropionylglycine was monitored by time-resolved spectral scanning of reactions containing a fixed amount of aquacobalamin (10-25 μM (micromolar)) and various concentrations of the ligand.
Mercaptopropionylglycine reacted readily with aquacobalamin to form a stable MPGCbl complex at pH 7.2.
A fixed concentration of aquacobalamin was reacted with varying concentrations of the ligand MPG. The reaction was monitored by time-resolved UV-visible spectroscopy for a total of 50 minutes (FIG. 5). The spectral changes were consistent with the conversion of aquacobalamin into MPGCbl (FIG. 5 a) via a mechanism that involves no detectable reaction intermediates. Initial and final spectra are analyzed to confirm the identity of the thiolatocobalamin product (FIG. 5 b). Time courses were generated at the absorption maxima of each species (350 nm, H2OCbl^+, and 372 nm, MPGCbl) (FIG. 5 c).

human wild type CblC = target: T1, human wild type CblC (Homo sapiens, UniProt Q9Y4U1); experiment: Binding to CblC and conversion to base-off configuration (UV-visible spectrophotometry); conditions: pH 7.6, EPPS buffer 0.04 M
T1 sequence (Q9Y4U1 1-282): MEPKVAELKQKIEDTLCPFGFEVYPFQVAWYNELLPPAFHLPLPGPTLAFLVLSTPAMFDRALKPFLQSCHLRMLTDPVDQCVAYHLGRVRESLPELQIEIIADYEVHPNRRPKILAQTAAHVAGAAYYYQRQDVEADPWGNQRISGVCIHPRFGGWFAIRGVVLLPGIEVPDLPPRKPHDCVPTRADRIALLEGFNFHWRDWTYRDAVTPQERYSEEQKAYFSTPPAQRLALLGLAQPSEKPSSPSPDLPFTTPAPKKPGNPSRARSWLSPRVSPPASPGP
Protocol: An important aspect for the bioactivity of the new compounds is their ability to bind to the processing enzyme CblC, and to undergo conversion to the base-off configuration, which enhances their reactivity. This is a critical step in all intracellular pathways of vitamin B12 metabolism that are involved in pathogenesis, and certainly, relevant to the cblC disease itself. […] Binding studies were conducted at pH 7.6 (EPPS buffer, 0.04 M) and analyzed by UV-visible spectrophotometry.

[3] = target: T2, human recombinant CblC wild type (Homo sapiens, UniProt Q9Y4U1); format: biochemical; conditions: for Half-life of beta-axial ligand removal, Wild type CblC: human, pH 7.6
T2 sequence (Q9Y4U1 1-282): T1 sequence (Q9Y4U1 1-282)
Protocol: (§1) The ability of the newly synthesized Cbl derivatives to serve as substrates for CblC was examined (FIG. 12). CblC activity was measured by UV-visible spectroscopy according to published procedures. Analysis of reaction products was performed by mass spectrometry. We measured dealkylation and de-thiolation of Co—C and Co—S bonded Cbl derivatives, respectively, by wild type and mutant CblC proteins to determine whether these reactions could be supported in patients harboring an abnormal isoform of CblC with low or no enzymatic activity.
The enzymatic activity of CblC in the presence of CyaCbl and MPGCbl as substrates was evaluated under the same experimental conditions utilized to examine dealkylation of MeCbl and AdoCbl. […] The reaction was complete in less than 10 seconds, which is the time it takes to record the first spectrum after mixing of CblC-bound to CyaCbl or MPGCbl with 5 mM GSH (FIG. 12).
(§2) First, the ability of novel cobalamins described herein was tested to act as substrate for wild type CblC and to restore the lost activity of pathogenic variants, such as mutant Arg161Gly, that leads to early-onset form of the cblC disease.

[4] = target: T3, human recombinant CblC pathogenic mutant Arg161Gly (Homo sapiens, UniProt Q9Y4U1, R161G); format: biochemical; conditions: for Half-life of beta-axial ligand removal, Mutant Arg161Gly: human, pH 7.6
T3 sequence (Q9Y4U1 1-282 R161G): T1 sequence (Q9Y4U1 1-282) with R161G
Protocol: as §1, §2

[5] = system: fibroblasts from healthy subjects; experiment: MMA in conditioned medium of control fibroblasts; format: cell-based, human
Description: (§3) Cultured cells from control (healthy neonatal subjects) or cblC fibroblasts were supplemented without exogenous Cbl (negative control), with commercial CNCbl (current therapy control) or with the newly synthesized cobalamins (test group). The ability of these compounds to support intracellular Cbl metabolism in the absence of CblC was examined by monitoring disease biomarker metabolites Hcy and MMA levels in the conditioned medium.
(§4) The cellular response to treatment with new derivatives CyaCbl and MPGCbl in comparison with current therapeutic form CNCbl was measured. The ability of the new cobalamin derivatives CyaCbl and MPGCbl to achieve metabolic control, i.e. reduction of for example MMA production by cblC fibroblasts in culture, was examined as described in previously published experimental protocols. FIG. 13 provides a comparison of the effect of CNCbl (0.001 mM) versus the same dose of CyaCbl or MPGCbl given to cultured fibroblasts from healthy subjects (HFF, NHDF, PCS, Wiesel, Control) or from cblC patients (WG1801, WG2176, WG3354, GM10011, GM02345B, GM02452C).
(§5) Additional examination of the effect of thiolatocobalamins CyaCbl and MPGCbl and sulfur-containing alkylcobalamin Me-S-MeCbl with respect to structural analogues that are NOT available for therapy was also carried out, for comparative purposes. The results of cellular response (healthy controls and cblC patient fibroblasts) to cobalamin treatment, as reflected by MMA levels is provided in Table 6.

[6] = system: fibroblasts isolated from patients with cblC disease; experiment: MMA in conditioned medium of cblC patient fibroblasts; format: cell-based, human
Description: as §3, §4, §5

cultured fibroblasts = experiment: Cytotoxicity and cellular transport observed in cultured fibroblast experiments; format: cell-based, human
[7] = target: T2, human recombinant CblC wild type; format: biochemical; conditions: dethiolation; 50 μM GSH
[8] = base-on to base-off equilibrium; cited from earlier work
[9] = electrochemical; 20° C.; cited from earlier work
[10] = Controls (group value), after 7 days
[11] = Controls, after 7 days wash-off period without supplemental cobalamin
[12] = HFF control fibroblasts, after 7 days
[13] = NHDF control fibroblasts, after 7 days
[14] = Wiezel control fibroblasts, after 7 days
[15] = GM02345B cblC fibroblasts, after 7 days
[16] = GM02452C cblC fibroblasts, after 7 days
[17] = GM10011 cblC fibroblasts, after 7 days
[18] = WG1801 cblC fibroblasts, after 7 days
[19] = WG2176 cblC fibroblasts, after 7 days
[20] = WG3354 cblC fibroblasts, after 7 days
[21] = cblC patients (group value), after 7 days
[22] = cblC patients, after 7 days wash-off period without supplemental cobalamin

Compound	Half-life of beta-axial ligand removal, Wild type CblC [3] [min]	Half-life of beta-axial ligand removal, Mutant Arg161Gly [4] [min]	MMA in conditioned medium [5, 10] [μmol/mg protein]	MMA in conditioned medium [5, 11] [μmol/mg protein]	MMA in conditioned medium [5, 12] [μmol/mg protein]	MMA in conditioned medium [5, 13] [μmol/mg protein]	MMA in conditioned medium [5, 14] [μmol/mg protein]	MMA in conditioned medium [6, 15] [μmol/mg protein]	MMA in conditioned medium [6, 16] [μmol/mg protein]	MMA in conditioned medium [6, 17] [μmol/mg protein]	MMA in conditioned medium [6, 18] [μmol/mg protein]	MMA in conditioned medium [6, 19] [μmol/mg protein]	MMA in conditioned medium [6, 20] [μmol/mg protein]	MMA in conditioned medium [6, 21] [μmol/mg protein]	MMA in conditioned medium [6, 22] [μmol/mg protein]	other results
CC(C[S][Co+2])C(=O)N1CCCC1C(=O)O.CC1=C2N=C(C=C3N=C(C(C)=C4[N-]C(C(CC(N)=O)C4(C)CCC(=O)NCC(C)OP(=O)([O-])OC4C(CO)OC(n5cnc6cc(C)c(C)cc65)C4O)C4(C)N=C1C(CCC(N)=O)C4(C)CC(N)=O)C(CCC(N)=O)C3(C)C)C(CCC(N)=O)C2(C)CC(N)=O (stereo not shown) [CaptoprilCbl]																K, concentration-dependent reaction rate (formation from aquacobalamin) [1]: 24.7 M⁻¹ s⁻¹
CC1=C2N=C(C=C3N=C(C(C)=C4[N-]C(C(CC(N)=O)C4(C)CCC(=O)NCC(C)OP(=O)([O-])OC4C(CO)OC(n5cnc6cc(C)c(C)cc65)C4O)C4(C)N=C1C(CCC(N)=O)C4(C)CC(N)=O)C(CCC(N)=O)C3(C)C)C(CCC(N)=O)C2(C)CC(N)=O.NCC[S][Co+2] (stereo not shown) [CyaCbl]	<0.5	2.1	0.141	0.154	0.095	0.184	0.144	0.217	0.369	0.208	0.194	0.189	0.114	0.215	0.190	K, concentration-dependent reaction rate (formation from aquacobalamin) [2]: 28.66 M⁻¹ s⁻¹; Effect of binding to human wild type CblC on configuration (human wild type CblC): induces their base-off configuration; Product of the reaction ([3]; cobalamin bound to human CblC, in the presence of GSH): H2OCbl^+; Product under ambient conditions, Mutant Arg161Gly ([4]; dethiolation, 50 μM GSH): H2OCbl; Reduction of MMA to the levels of healthy fibroblasts, compared with CNCbl ([6]; 0.001 mM, same dose as CNCbl, FIG. 13): far superior compared to CNCbl; Transport into the cells (cultured fibroblasts; canonical TC transporter and its cellular receptor CD320): transported successfully into the cells; Cytotoxicity (cultured fibroblasts; under the experimental conditions of the fibroblast cultures): not cytotoxic; Product under ambient conditions, Wild type CblC [7]: H2OCbl
C/C1=C2/[N-][C@H]([C@H](CC(N)=O)[C@@]2(C)CCC(=O)NC[C@H](C)OP(=O)([O-])O[C@H]2[C@@H](O)[C@@H](n3cnc4cc(C)c(C)cc43)O[C@@H]2CO)[C@]2(C)N=C(/C(C)=C3N=C(/C=C4N=C1[C@@H](CCC(N)=O)C\4(C)C)[C@@H](CCC(N)=O)[C@]\3(C)CC(N)=O)[C@@H](CCC(N)=O)[C@]2(C)CC(N)=O.[CH3-].[Co+3] [MeCbl, Methylcobalamin, reference compound]	10	60	0.118	0.131	0.106	0.152	0.095	0.250	0.243	0.066	0.429	0.459	0.891	0.390	0.298	Product under ambient conditions, Wild type CblC ([3]; dealkylation, 5 mM GSH): H2OCbl; Product under ambient conditions, Mutant Arg161Gly ([4]; dealkylation, 5 mM GSH): Cob(II)alamin; pKa of base on/base off [8]: 2.90; Redox potential [V] relative to NHE [9]: −1.20 V

— patent US11384113B2, “Cobalamin derivatives and their use for the treatment of diseases caused by lack of vitamin B12 supply” (Albert-Ludwigs-Universitaet Freiburg, priority 2017, dated 2022)
